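These data come from cells grown in 96-well plates and exposed to compound for 48 hours at five concentrations. Here, GI50 denotes the concentration required for 50% inhibition of growth. TGI denotes the concentration required for complete inhibition of growth.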
Columns and labels:
Assay in all cases: inhibition of tumour cell growth, NCI panel, 48 h
UACC-257 melanoma = tested on: UACC-257 melanoma
UACC-62 melanoma = tested on: UACC-62 melanoma
EKVX NSCLC = tested on: EKVX NSCLC
RPMI-8226 leukemia = tested on: RPMI-8226 leukemia
OVCAR-8 ovarian = tested on: OVCAR-8 ovarian
U251 CNS = tested on: U251 CNS
MDA-MB-435 = tested on: MDA-MB-435
NCI-H226 lung = tested on: NCI-H226 lung
A498 renal = tested on: A498 renal
HT29 colon = tested on: HT29 colon
786-0 renal = tested on: 786-0 renal
OVCAR-4 ovarian = tested on: OVCAR-4 ovarian
OVCAR-5 ovarian = tested on: OVCAR-5 ovarian
NCI-H522 lung = tested on: NCI-H522 lung
NCI/ADR-RES ovarian = tested on: NCI/ADR-RES ovarian
DU-145 prostate = tested on: DU-145 prostate
TK-10 renal = tested on: TK-10 renal
UO-31 renal = tested on: UO-31 renal
K-562 leukemia = tested on: K-562 leukemia
SNB-19 CNS = tested on: SNB-19 CNS
SK-MEL-2 melanoma = tested on: SK-MEL-2 melanoma
SF-539 CNS = tested on: SF-539 CNS
CCRF-CEM leukemia = tested on: CCRF-CEM leukemia
OVCAR-3 ovarian = tested on: OVCAR-3 ovarian
SN12C renal = tested on: SN12C renal
HCT-116 colon = tested on: HCT-116 colon
HS 578T breast = tested on: HS 578T breast
CAKI-1 renal = tested on: CAKI-1 renal
PC-3 prostate = tested on: PC-3 prostate
ACHN renal = tested on: ACHN renal
MALME-3M melanoma = tested on: MALME-3M melanoma
NCI-H460 lung = tested on: NCI-H460 lung
SF-295 CNS = tested on: SF-295 CNS
T-47D breast = tested on: T-47D breast
MOLT-4 leukemia = tested on: MOLT-4 leukemia
HL-60(TB) leukemia = tested on: HL-60(TB) leukemia
BT-549 breast = tested on: BT-549 breast
A549 NSCLC = tested on: A549 NSCLC
LOX IMVI melanoma = tested on: LOX IMVI melanoma
SK-MEL-5 melanoma = tested on: SK-MEL-5 melanoma
IGROV1 ovarian = tested on: IGROV1 ovarian
M14 melanoma = tested on: M14 melanoma
SK-MEL-28 melanoma = tested on: SK-MEL-28 melanoma
HCC-2998 colon = tested on: HCC-2998 colon
HCT-15 colon = tested on: HCT-15 colon
COLO 205 colon = tested on: COLO 205 colon
RXF 393 renal = tested on: RXF 393 renal
HOP-62 NSCLC = tested on: HOP-62 NSCLC
SNB-75 CNS = tested on: SNB-75 CNS
KM12 colon = tested on: KM12 colon
MCF7 breast = tested on: MCF7 breast
NCI-H23 lung = tested on: NCI-H23 lung
SK-OV-3 ovarian = tested on: SK-OV-3 ovarian
SW-620 colon = tested on: SW-620 colon
MDA-MB-231 breast = tested on: MDA-MB-231 breast
SF-268 CNS = tested on: SF-268 CNS
HOP-92 NSCLC = tested on: HOP-92 NSCLC
SR leukemia = tested on: SR leukemia

## CN1CCN(Cc2ccc(NC(=O)c3cncc(C#Cc4cnc(N)c5ncccc45)c3)cc2C(F)(F)F)CC1
UACC-257 melanoma
  GI50: 639 nM
  TGI: 5600 nM
UACC-62 melanoma
  GI50: 341 nM
  TGI: 1930 nM
EKVX NSCLC
  GI50: 589 nM
  TGI: 15500 nM
RPMI-8226 leukemia
  GI50: 401 nM
  TGI: 8200 nM
OVCAR-8 ovarian
  GI50: 580 nM
  TGI: 3510 nM
U251 CNS
  GI50: 509 nM
  TGI: 2180 nM
MDA-MB-435
  GI50: 247 nM
  TGI: 1440 nM
NCI-H226 lung
  GI50: 267 nM
  TGI: 12500 nM
A498 renal
  GI50: 141 nM
  TGI: 652 nM
HT29 colon
  GI50: 157 nM
  TGI: 1480 nM
786-0 renal
  GI50: 1120 nM
  TGI: 2520 nM
OVCAR-4 ovarian
  GI50: 100 nM
  TGI: 1290 nM
OVCAR-5 ovarian
  GI50: 372 nM
  TGI: 1780 nM
NCI-H522 lung
  GI50: 396 nM
  TGI: 8490 nM
NCI/ADR-RES ovarian
  GI50: 685 nM
  TGI: 3130 nM
DU-145 prostate
  GI50: 370 nM
  TGI: 7330 nM
TK-10 renal
  GI50: 686 nM
  TGI: 3680 nM
UO-31 renal
  GI50: 242 nM
  TGI: 1210 nM
K-562 leukemia
  TGI: 1920 nM
SNB-19 CNS
  GI50: 2110 nM
  TGI: 11800 nM
SK-MEL-2 melanoma
  GI50: 142 nM
  TGI: 468 nM
SF-539 CNS
  GI50: 306 nM
  TGI: 1470 nM
CCRF-CEM leukemia
  GI50: 324 nM
OVCAR-3 ovarian
  GI50: 781 nM
  TGI: 4880 nM
SN12C renal
  GI50: 307 nM
  TGI: 1500 nM
HCT-116 colon
  GI50: 122 nM
  TGI: 1740 nM
HS 578T breast
  GI50: 213 nM
  TGI: 1680 nM
CAKI-1 renal
  GI50: 231 nM
  TGI: 4070 nM
PC-3 prostate
  GI50: 584 nM
  TGI: 16900 nM
ACHN renal
  GI50: 177 nM
  TGI: 1120 nM
MALME-3M melanoma
  GI50: 131 nM
  TGI: 607 nM
NCI-H460 lung
  GI50: 261 nM
  TGI: 1590 nM
SF-295 CNS
  GI50: 550 nM
  TGI: 15500 nM
T-47D breast
  GI50: 2520 nM
  TGI: 39100 nM
MOLT-4 leukemia
  GI50: 239 nM
  TGI: 5160 nM
HL-60(TB) leukemia
  GI50: 76.8 nM
  TGI: 602 nM
BT-549 breast
  GI50: 5100 nM
  TGI: 23600 nM
A549 NSCLC
  GI50: 436 nM
  TGI: 2520 nM
LOX IMVI melanoma
  GI50: 216 nM
  TGI: 1330 nM
SK-MEL-5 melanoma
  GI50: 432 nM
  TGI: 1590 nM
IGROV1 ovarian
  GI50: 175 nM
  TGI: 2580 nM
M14 melanoma
  GI50: 69.8 nM
  TGI: 1140 nM
SK-MEL-28 melanoma
  GI50: 389 nM
  TGI: 1590 nM
HCC-2998 colon
  GI50: 539 nM
  TGI: 16700 nM
HCT-15 colon
  GI50: 314 nM
  TGI: 12700 nM
COLO 205 colon
  GI50: 231 nM
  TGI: 1660 nM
RXF 393 renal
  GI50: 260 nM
  TGI: 1090 nM
HOP-62 NSCLC
  GI50: 448 nM
  TGI: 5780 nM
SNB-75 CNS
  GI50: 391 nM
  TGI: 1480 nM
KM12 colon
  GI50: < 14.6 nM
  TGI: 4030 nM
MCF7 breast
  GI50: 723 nM
  TGI: 2920 nM
NCI-H23 lung
  GI50: 284 nM
  TGI: 6260 nM
SK-OV-3 ovarian
  GI50: 391 nM
  TGI: 9070 nM
SW-620 colon
  GI50: 247 nM
  TGI: 1360 nM
MDA-MB-231 breast
  GI50: 147 nM
  TGI: 710 nM
SF-268 CNS
  GI50: 511 nM
  TGI: 2950 nM
HOP-92 NSCLC
  GI50: 209 nM
  TGI: 1240 nM

## N#CCCNc1nonc1-c1nc2ccccc2n1CC(=O)c1ccc(N)cc1
UACC-257 melanoma
  TGI: > 100000 nM
UACC-62 melanoma
  GI50: < 15.4 nM
  TGI: > 100000 nM
RPMI-8226 leukemia
  GI50: 30.9 nM
OVCAR-8 ovarian
  GI50: 35.4 nM
  TGI: > 100000 nM
U251 CNS
  GI50: 36 nM
  TGI: > 100000 nM
MDA-MB-435
  GI50: < 10 nM
  TGI: < 16.6 nM
NCI-H226 lung
  GI50: 98 nM
  TGI: > 100000 nM
A498 renal
  GI50: < 10 nM
  TGI: 87.3 nM
HT29 colon
  GI50: 22.6 nM
  TGI: 70.1 nM
786-0 renal
  GI50: 41.7 nM
  TGI: > 100000 nM
OVCAR-4 ovarian
  GI50: 1880 nM
  TGI: > 100000 nM
OVCAR-5 ovarian
  GI50: 59.3 nM
  TGI: > 100000 nM
NCI-H522 lung
  GI50: < 10 nM
  TGI: < 10 nM
NCI/ADR-RES ovarian
  GI50: < 10 nM
  TGI: 42.9 nM
DU-145 prostate
  GI50: 28.8 nM
  TGI: 98.4 nM
TK-10 renal
  TGI: > 90900 nM
UO-31 renal
  GI50: 282 nM
  TGI: > 100000 nM
K-562 leukemia
  GI50: < 10 nM
  TGI: > 100000 nM
SNB-19 CNS
  TGI: > 100000 nM
SK-MEL-2 melanoma
  GI50: 498 nM
SF-539 CNS
  GI50: 25.2 nM
  TGI: 1190 nM
CCRF-CEM leukemia
  GI50: 29 nM
  TGI: > 100000 nM
OVCAR-3 ovarian
  GI50: 20.7 nM
  TGI: 54.9 nM
SN12C renal
  GI50: 44.7 nM
  TGI: > 100000 nM
HCT-116 colon
  GI50: 28.5 nM
HS 578T breast
  GI50: 19.2 nM
  TGI: > 100000 nM
CAKI-1 renal
  GI50: 70.1 nM
  TGI: > 100000 nM
PC-3 prostate
  GI50: 27.1 nM
  TGI: > 77800 nM
ACHN renal
  GI50: 36.2 nM
  TGI: > 100000 nM
MALME-3M melanoma
  TGI: > 100000 nM
NCI-H460 lung
  GI50: 31.7 nM
  TGI: > 32900 nM
SF-295 CNS
  GI50: < 10 nM
  TGI: > 100000 nM
T-47D breast
  GI50: 29000 nM
  TGI: > 100000 nM
MOLT-4 leukemia
  GI50: 30.1 nM
HL-60(TB) leukemia
  GI50: < 16.4 nM
BT-549 breast
  GI50: 28.9 nM
  TGI: 22900 nM
A549 NSCLC
  GI50: 34.5 nM
  TGI: > 100000 nM
LOX IMVI melanoma
  GI50: 32.6 nM
  TGI: > 100000 nM
SK-MEL-5 melanoma
  GI50: 27.1 nM
  TGI: 123 nM
IGROV1 ovarian
  GI50: 35.6 nM
  TGI: > 100000 nM
M14 melanoma
  GI50: 24.9 nM
  TGI: > 100000 nM
SK-MEL-28 melanoma
  GI50: 35.1 nM
  TGI: > 100000 nM
HCC-2998 colon
  GI50: 33.8 nM
  TGI: > 100000 nM
HCT-15 colon
  GI50: 33.4 nM
  TGI: > 100000 nM
COLO 205 colon
  GI50: 22 nM
  TGI: 47.7 nM
RXF 393 renal
  GI50: 12.9 nM
  TGI: > 100000 nM
HOP-62 NSCLC
  GI50: 43.2 nM
  TGI: > 100000 nM
SR leukemia
  GI50: < 13.5 nM
  TGI: > 100000 nM
SNB-75 CNS
  GI50: 23.2 nM
  TGI: > 73000 nM
KM12 colon
  GI50: < 11.8 nM
  TGI: 1280 nM
MCF7 breast
  GI50: < 19 nM
  TGI: > 100000 nM
NCI-H23 lung
  GI50: 31.2 nM
  TGI: > 100000 nM
SK-OV-3 ovarian
  GI50: 18.9 nM
  TGI: 66.5 nM
SW-620 colon
  GI50: 31 nM
  TGI: > 100000 nM
SF-268 CNS
  GI50: 23 nM
  TGI: > 82000 nM
HOP-92 NSCLC
  GI50: < 10 nM
  TGI: 456 nM
